Values after ≈ are worked out from the molar mass of the structure shown. Active and inactive are the calls of the source. The rule behind the calls is not given here.
What was measured:
Escherichia coli [1] = experiment: Inhibition of Metallo-beta-lactamase NDM-1 in Escherichia coli clinical isolate assessed as MIC for meropenem antibacterial activity at 32 ug/ml (reference value: 32 ug/ml); conditions: dose 32.0 µg/ml
Escherichia coli [2] = experiment: Inhibition of Metallo-beta-lactamase NDM-1 in Escherichia coli clinical isolate assessed as MIC for meropenem antibacterial activity at 64 ug/ml (reference value: 32 ug/ml); conditions: dose 64.0 µg/ml
Escherichia coli [3] = experiment: Inhibition of Metallo-beta-lactamase NDM-1 in Escherichia coli clinical isolate assessed as MIC for meropenem antibacterial activity at 128 ug/ml (reference value: 32 ug/ml); conditions: dose 128.0 µg/ml
Enterobacter cloacae [4] = experiment: Inhibition of Metallo-beta-lactamase IMP-1 in Enterobacter cloacae clinical isolate assessed as MIC for meropenem antibacterial activity at 32 ug/ml (reference value: 32 ug/ml); conditions: dose 32.0 µg/ml
Enterobacter cloacae [5] = experiment: Inhibition of Metallo-beta-lactamase IMP-1 in Enterobacter cloacae clinical isolate assessed as MIC for meropenem antibacterial activity at 64 ug/ml (reference value: 32 ug/ml); conditions: dose 64.0 µg/ml
Enterobacter cloacae [6] = experiment: Inhibition of Metallo-beta-lactamase IMP-1 in Enterobacter cloacae clinical isolate assessed as MIC for meropenem antibacterial activity at 128 ug/ml (reference value: 32 ug/ml); conditions: dose 128.0 µg/ml
Klebsiella pneumoniae [7] = experiment: Inhibition of Metallo-beta-lactamase IMP-28 in Klebsiella pneumoniae clinical isolate assessed as MIC for meropenem antibacterial activity at 32 ug/ml (reference value: 2 ug/ml); conditions: dose 32.0 µg/ml
Klebsiella pneumoniae [8] = experiment: Inhibition of Metallo-beta-lactamase IMP-28 in Klebsiella pneumoniae clinical isolate assessed as MIC for meropenem antibacterial activity at 64 ug/ml (reference value: 2 ug/ml); conditions: dose 64.0 µg/ml
Klebsiella pneumoniae [9] = experiment: Inhibition of Metallo-beta-lactamase IMP-28 in Klebsiella pneumoniae clinical isolate assessed as MIC for meropenem antibacterial activity at 128 ug/ml (reference value: 2 ug/ml); conditions: dose 128.0 µg/ml
Escherichia coli [10] = experiment: Inhibition of Metallo-beta-lactamase VIM-2 in Escherichia coli clinical isolate assessed as MIC for meropenem antibacterial activity at 32 ug/ml (reference value: 4 ug/ml); conditions: dose 32.0 µg/ml
Escherichia coli [11] = experiment: Inhibition of Metallo-beta-lactamase VIM-2 in Escherichia coli clinical isolate assessed as MIC for meropenem antibacterial activity at 64 ug/ml (reference value: 4 ug/ml); conditions: dose 64.0 µg/ml
Escherichia coli [12] = experiment: Inhibition of Metallo-beta-lactamase VIM-2 in Escherichia coli clinical isolate assessed as MIC for meropenem antibacterial activity at 128 ug/ml (reference value: 4 ug/ml); conditions: dose 128.0 µg/ml
[13] = Inhibition of Escherichia coli beta-lactamase NDM-1 using nitrocefin chromogenic substrate measured after 15 to 60 min at 25 degC by microplate reader
[14] = Inhibition of Escherichia coli beta-lactamase VIM-2 using nitrocefin chromogenic substrate measured after 15 to 60 min at 25 degC by microplate reader
Enterobacter cloacae [15] = experiment: Inhibition of Metallo-beta-lactamase IMP-1 in Enterobacter cloacae clinical isolate assessed as fold reduction in meropenem MIC at 32 ug/ml; conditions: dose 32.0 µg/ml
Enterobacter cloacae [16] = experiment: Inhibition of Metallo-beta-lactamase IMP-1 in Enterobacter cloacae clinical isolate assessed as fold reduction in meropenem MIC at 64 ug/ml; conditions: dose 64.0 µg/ml
Enterobacter cloacae [17] = experiment: Inhibition of Metallo-beta-lactamase IMP-1 in Enterobacter cloacae clinical isolate assessed as fold reduction in meropenem MIC at 128 ug/ml; conditions: dose 128.0 µg/ml
Klebsiella pneumoniae [18] = experiment: Inhibition of Metallo-beta-lactamase IMP-28 in Klebsiella pneumoniae clinical isolate assessed as fold reduction in meropenem MIC at 32 ug/ml; conditions: dose 32.0 µg/ml
Klebsiella pneumoniae [19] = experiment: Inhibition of Metallo-beta-lactamase IMP-28 in Klebsiella pneumoniae clinical isolate assessed as fold reduction in meropenem MIC at 64 ug/ml; conditions: dose 64.0 µg/ml
Klebsiella pneumoniae [20] = experiment: Inhibition of Metallo-beta-lactamase IMP-28 in Klebsiella pneumoniae clinical isolate assessed as fold reduction in meropenem MIC at 128 ug/ml; conditions: dose 128.0 µg/ml
Escherichia coli [21] = experiment: Inhibition of Metallo-beta-lactamase VIM-2 in Escherichia coli clinical isolate assessed as fold reduction in meropenem MIC at 32 ug/ml; conditions: dose 32.0 µg/ml
Escherichia coli [22] = experiment: Inhibition of Metallo-beta-lactamase VIM-2 in Escherichia coli clinical isolate assessed as fold reduction in meropenem MIC at 64 ug/ml; conditions: dose 64.0 µg/ml
Escherichia coli [23] = experiment: Inhibition of Metallo-beta-lactamase VIM-2 in Escherichia coli clinical isolate assessed as fold reduction in meropenem MIC at 128 ug/ml; conditions: dose 128.0 µg/ml
Escherichia coli [24] = experiment: Inhibition of Metallo-beta-lactamase NDM-1 in Escherichia coli clinical isolate assessed as fold reduction in meropenem MIC at 32 ug/ml; conditions: dose 32.0 µg/ml
Escherichia coli [25] = experiment: Inhibition of Metallo-beta-lactamase NDM-1 in Escherichia coli clinical isolate assessed as fold reduction in meropenem MIC at 64 ug/ml; conditions: dose 64.0 µg/ml
Escherichia coli [26] = experiment: Inhibition of Metallo-beta-lactamase NDM-1 in Escherichia coli clinical isolate assessed as fold reduction in meropenem MIC at 128 ug/ml; conditions: dose 128.0 µg/ml
Enterobacter cloacae [27] = experiment: Antibacterial activity against beta-lactamase IMP1 producing Enterobacter cloacae clinical isolate measured upto 128 ug/ml; format: functional, organism-based
Klebsiella pneumoniae [28] = experiment: Antibacterial activity against beta-lactamase IMP-28 producing Klebsiella pneumoniae clinical isolate measured upto 128 ug/ml; format: functional, organism-based
Escherichia coli [29] = experiment: Antibacterial activity against beta-lactamase VIM2 producing Escherichia coli clinical isolate measured upto 128 ug/ml; format: functional, organism-based
[30] = Inhibition of Enterobacter cloacae IMP-1 using nitrocefin chromogenic substrate measured after 15 to 60 min at 25 degC by microplate reader
[31] = Inhibition of Klebsiella pneumoniae beta-lactamase IMP-28 using nitrocefin chromogenic substrate measured after 15 to 60 min at 25 degC by microplate reader
Klebsiella pneumoniae [32] = experiment: Substrate activity at Klebsiella pneumoniae beta-lactamase IMP-28 assessed as compound hydrolysis by measuring Km by Michaelis-Menten analysis
Klebsiella pneumoniae [33] = experiment: Substrate activity at Klebsiella pneumoniae beta-lactamase IMP-28 assessed as compound hydrolysis by measuring Kcat by Michaelis-Menten analysis
Klebsiella pneumoniae [34] = experiment: Substrate activity at Klebsiella pneumoniae beta-lactamase IMP-28 assessed as compound hydrolysis by measuring Kcat/Km by Michaelis-Menten analysis
Escherichia coli [35] = experiment: Antibacterial activity against beta-lactamase NDM1 producing Escherichia coli clinical isolate measured upto 128 ug/ml; format: functional, organism-based
Enterobacter cloacae [36] = experiment: Inhibition of Metallo-beta-lactamase IMP-1 in Enterobacter cloacae clinical isolate assessed as MIC for meropenem antibacterial activity at 32 ug/ml (Rvb =16 ug/ml); conditions: dose 32.0 µg/ml
Enterobacter cloacae [37] = experiment: Inhibition of Metallo-beta-lactamase IMP-1 in Enterobacter cloacae clinical isolate assessed as MIC for meropenem antibacterial activity at 64 ug/ml (Rvb =16 ug/ml); conditions: dose 64.0 µg/ml
Enterobacter cloacae [38] = experiment: Inhibition of Metallo-beta-lactamase IMP-1 in Enterobacter cloacae clinical isolate assessed as MIC for meropenem antibacterial activity at 128 ug/ml (Rvb =16 ug/ml); conditions: dose 128.0 µg/ml
Klebsiella pneumoniae [39] = experiment: Inhibition of Metallo-beta-lactamase IMP-28 in Klebsiella pneumoniae clinical isolate assessed as MIC for meropenem antibacterial activity at 32 ug/ml (reference value: 4 ug/ml); conditions: dose 32.0 µg/ml
Klebsiella pneumoniae [40] = experiment: Inhibition of Metallo-beta-lactamase IMP-28 in Klebsiella pneumoniae clinical isolate assessed as MIC for meropenem antibacterial activity at 64 ug/ml (reference value: 4 ug/ml); conditions: dose 64.0 µg/ml
Klebsiella pneumoniae [41] = experiment: Inhibition of Metallo-beta-lactamase IMP-28 in Klebsiella pneumoniae clinical isolate assessed as MIC for meropenem antibacterial activity at 128 ug/ml (reference value: 4 ug/ml); conditions: dose 128.0 µg/ml
Escherichia coli [42] = experiment: Inhibition of Metallo-beta-lactamase VIM-2 in Escherichia coli clinical isolate assessed as MIC for meropenem antibacterial activity at 32 ug/ml (reference value: 8 ug/ml); conditions: dose 32.0 µg/ml
Escherichia coli [43] = experiment: Inhibition of Metallo-beta-lactamase VIM-2 in Escherichia coli clinical isolate assessed as MIC for meropenem antibacterial activity at 64 ug/ml (reference value: 8 ug/ml); conditions: dose 64.0 µg/ml
Escherichia coli [44] = experiment: Inhibition of Metallo-beta-lactamase VIM-2 in Escherichia coli clinical isolate assessed as MIC for meropenem antibacterial activity at 128 ug/ml (reference value: 8 ug/ml); conditions: dose 128.0 µg/ml
[45] = Stability of the compound in Muller hinton broth assessed compound remaining measured after 15 hrs by HPLC analysis; format: physicochemical; conditions: Mueller Hinton broth, read-out: Stability

| SMILES | MIC (Escherichia coli [1]) [µg/mL] | MIC (Escherichia coli [2]) [µg/mL] | MIC (Escherichia coli [3]) [µg/mL] | MIC (Enterobacter cloacae [4]) [µg/mL] | MIC (Enterobacter cloacae [5]) [µg/mL] | MIC (Enterobacter cloacae [6]) [µg/mL] | MIC (Klebsiella pneumoniae [7]) [µg/mL] | IC50 [14] [µM] | fold change (FC) (Enterobacter cloacae [15]) | fold change (FC) (Enterobacter cloacae [16]) | fold change (FC) (Enterobacter cloacae [17]) | fold change (FC) (Klebsiella pneumoniae [18]) | fold change (FC) (Klebsiella pneumoniae [19]) | fold change (FC) (Klebsiella pneumoniae [20]) | fold change (FC) (Escherichia coli [21]) | fold change (FC) (Escherichia coli [22]) | fold change (FC) (Escherichia coli [23]) | fold change (FC) (Escherichia coli [24]) | fold change (FC) (Escherichia coli [25]) | fold change (FC) (Escherichia coli [26]) | also measured |
| --- | --- | --- | --- | --- | --- | --- | --- | --- | --- | --- | --- | --- | --- | --- | --- | --- | --- | --- | --- | --- | --- |
| O=C(O)c1cccc(C(=O)O)n1 [DIPICOLINIC ACID] | 0.5 (≈ 2.99 µM) | 0.5 (≈ 2.99 µM) | < 0.5 | 16 (≈ 95.7 µM) | 1 (≈ 5.98 µM) | 0.25 (≈ 1.5 µM) | 0.125 (≈ 0.748 µM) | 10 | 2 | 32 | 128 | 16 | > 64 | > 64 | > 64 | > 64 | > 64 | 64 | 64 | > 64 | MIC (Klebsiella pneumoniae [8]): < 0.031 µg/mL; MIC (Klebsiella pneumoniae [9]): < 0.031 µg/mL; MIC (Escherichia coli [10]): < 0.063 µg/mL; MIC (Escherichia coli [11]): < 0.063 µg/mL; MIC (Escherichia coli [12]): < 0.063 µg/mL; IC50 [13]: 10 µM |
| O=C(Cc1ccccc1)N[C@@H]1C(=O)N2C(C(=O)O)=C(CSCc3ccccc3)CS[C@H]12 | 16 (≈ 35.2 µM) | 16 (≈ 35.2 µM) | 16 (≈ 35.2 µM) | 8 (≈ 17.6 µM) | 8 (≈ 17.6 µM) | 4 (≈ 8.8 µM) | 0.5 (≈ 1.1 µM) | 73 | 4 | 4 | 8 | 4 | 8 | 8 | 2 | 2 | 4 | 2 | 2 | 2 | MIC (Klebsiella pneumoniae [8]): 0.25 µg/mL (≈ 0.55 µM); MIC (Klebsiella pneumoniae [9]): 0.25 µg/mL (≈ 0.55 µM); MIC (Escherichia coli [10]): 2 µg/mL (≈ 4.4 µM); MIC (Escherichia coli [11]): 2 µg/mL (≈ 4.4 µM); MIC (Escherichia coli [12]): 1 µg/mL (≈ 2.2 µM); Activity (Enterobacter cloacae [27]): inactive; Activity (Klebsiella pneumoniae [28]): inactive; Activity (Escherichia coli [29]): inactive; IC50 [30]: 43 µM; IC50 [31]: 45 µM; Km (Klebsiella pneumoniae [32]): 20.5 µM; kcat (Klebsiella pneumoniae [33]): 10.8 s⁻¹; kcat/Km (Klebsiella pneumoniae [34]): 529000 M⁻¹ s⁻¹; Activity (Escherichia coli [35]): inactive |
| O=C(Cc1ccccc1)N[C@@H]1C(=O)N2C(C(=O)O)=C(CSCC(=O)c3ccccc3)CS[C@H]12 | 16 (≈ 33.2 µM) | 8 (≈ 16.6 µM) | 8 (≈ 16.6 µM) |  |  |  |  | 76 | 2 | 2 | 4 | 4 | 8 | 16 | 1 | 2 | 2 | 2 | 4 | 4 | MIC (Enterobacter cloacae [36]): 8 µg/mL (≈ 16.6 µM); MIC (Enterobacter cloacae [37]): 8 µg/mL (≈ 16.6 µM); MIC (Enterobacter cloacae [38]): 4 µg/mL (≈ 8.29 µM); MIC (Klebsiella pneumoniae [39]): 1 µg/mL (≈ 2.07 µM); MIC (Klebsiella pneumoniae [40]): 0.5 µg/mL (≈ 1.04 µM); MIC (Klebsiella pneumoniae [41]): 0.25 µg/mL (≈ 0.518 µM); MIC (Escherichia coli [42]): 8 µg/mL (≈ 16.6 µM); MIC (Escherichia coli [43]): 4 µg/mL (≈ 8.29 µM); MIC (Escherichia coli [44]): 4 µg/mL (≈ 8.29 µM); remaining at 15 h [45]: > 95%; Activity (Enterobacter cloacae [27]): inactive; Activity (Klebsiella pneumoniae [28]): inactive; Activity (Escherichia coli [29]): inactive; IC50 [30]: 3.3 µM; IC50 [31]: 14 µM; IC50 [13]: 77 µM; Activity (Escherichia coli [35]): inactive |

Source: ChEMBL document CHEMBL5034010, “Novel Cephalosporin Conjugates Display Potent and Selective Inhibition of Imipenemase-Type Metallo-β-Lactamases” (J Med Chem, 2021)
